Each structure is given as a SMILES string. Like-named read-outs stand apart in the source and are kept apart here.

A short description of series [1]: Pharmacokinetic evaluations of 3,6’-DP in rats. The series is classed as in vivo, rat. The following applies: authors' recent pharmacokinetic evaluations, no data shown.
Details of series [2]: method as in PMID 32589144. As to conditions: cited from earlier work.
Series [3] relates to IL-1β, TNF-α and IL-10 levels in animals with MCAo. On the set-up: method as in PMID 35631536. As to conditions: cited from earlier work.
For series [4] the following is noted: Sprague Dawley, rat, microsomes, 1 h, 1 μM.
For series [5] the following is noted: human, microsomes, 1 μM.
Series [6] is described as follows: in vitro. The following applies: Sprague Dawley, rat, microsomes.
The nature of series [7]: Liver microsomal stability, rat. On the technique in general: Liver microsomes are a subcellular fraction often used to study metabolism.
The nature of series [8]: Liver microsomal stability, human. The following applies: 1 μM.
Series [9] deals with LPS-induced cytokines (TNF-α, IL-6, IL-10, IL-13) in plasma and cerebral cortex. The series is described as follows: Systemic and brain LPS anti-inflammatory study in rats. The series is classed as in vivo. As to conditions: rat, LPS 1 mg/kg, 4 h. Here is the method: They were administered, via the intraperitoneal (I.P.) route, nano-formulated 3-MP at a dose of 13.25 or 26.5 mg/kg (equimolar to a clinically translatable dose of 12.5 and 25 mg/kg thalidomide), vehicle or pomalidomide (25 mg/kg). One hour later, animals were administered either LPS (1 mg/kg, E.Coli 055:B5, Sigma Aldrich, in normal saline, 0.5 mg/mL) or an alike volume of saline (without LPS) via the I.P. route. The LPS dose was selected from prior pilot studies to provide a substantial but sub-maximal rise in plasma proinflammatory cytokine levels, in line with our prior research. The selected 3-MP and pomalidomide doses were chosen as they are equimolar to, or are less than, doses of thalidomide and analogues that have been verified to be well tolerated in our previous studies and are of translational relevance to humans. Four hours after LPS administration, the animals were euthanized, and blood and brain tissues were collected and placed on wet ice. Plasma was quickly separated from blood by centrifugation (10,000 × g, 5 min, 4 °C) and together with the brain samples (cerebral cortex) was stored at − 80 °C. At a later time, cerebral cortex samples were sonicated in a TRIS-based lysis buffer (Mesoscale Discovery) with 3 × protease/phosphatase inhibitors (Halt™ Protease and Phosphatase Inhibitor Cocktail, Thermo Fisher Scientific, Waltham, MA, USA). Samples were then centrifuged (10,000 × g, 5 min, 4 °C), supernatant separated, and protein concentrations were quantified by bicinchoninic acid assay (BCA, Thermo Fisher Scientific). Rat plasma and cerebral cortex samples were analyzed by multi-proinflammatory cytokine ELISA (V-PLEX Proinflammatory Panel 2 Rat Kit, Mesoscale Discovery) following the manufacturer’s protocol to quantify TNF-α, IL-6, IL-10, and IL-13 levels.

Series [10] shares this test system. The series is described as above. The series is classed as in vivo. The following applies: rat, 1 h pre-treatment, 3-MP 13.23 and 26.47 mg/kg I.P., pomalidomide 25 mg/kg I.P., LPS 1 mg/kg I.P., 4 h.
Details of series [11]: method as in earlier work. The following applies: rat; cited from earlier work.
On the set-up of series [12]: method as in earlier work. As to conditions: nonhuman primate (cynomolgus monkey); cited from earlier work.
The conditions of series [13]: cited from earlier work.
Setting [14] is: Sprague Dawley, rat, microsomes.

In the case of `Nc1cccc2c1C(=S)N(C1CCC(=S)NC1=O)C2=O` (stereo not shown) [3,6’-DP, 3,6’-dithiopomalidomide], in series [1], the disappearance from plasma result is “disappears relatively rapidly” and the oral bioavailability result is “low”. For the same compound, the brain/plasma concentration ratio in [2] was 0.8. Moreover, in [3], the IL-1β levels result was “significantly reduce”, the IL-10 levels result is on record as “increased substantially” and the TNF-α levels result is on record as “significantly reduce”.
A word on the CLint scaled: it is the capacity of the preparation to metabolise the compound, expressed as a volume cleared per time. The low end stands for slow turnover, the high end for rapid turnover. What is called microsomal CLint is the capacity of the preparation to metabolise the compound, expressed as a volume cleared per time. Lower therefore signals slow turnover. Turning to `O=C(O)Cc1ccccc1Nc1c(Cl)cccc1Cl` [Diclofenac, diclofenac, reference compound], in series [4], the “Remaining (NCF = 60 min)” value turned out to be 107.9% and the “Remaining (T = 60 min)” value came out at 2.2%. Moreover, in series [5], the “Clint(liver)” value was 292.3 mL/min/kg and the “Clint(mic)” value is 324.8 µL/min/mg. In addition, in series [5] (1 h), the “Remaining (NCF = 60 min)” value is 101.0% and the “Remaining (T = 60 min)” value is on record as 0.0%. In [6], this compound had a CLint scaled at 1 μM of 227 mL/min/kg and a microsomal CLint at 1 μM of 126 µL/min/mg.
In turn, `C[C@]12CC[C@H]3[C@@H](CCC4=CC(=O)CC[C@@]43C)[C@@H]1CC[C@@H]2O` [Testosterone, testosterone] registered a CLint scaled at 1 μM in series [7] (setting [14]) of 3910 mL/min/kg. In series [7] (setting [14]), the microsomal CLint at 1 μM was found to be 2170 µL/min/mg. In addition, the “Remaining (T = 60 min)” value amounted to 0.1% in series [7] (rat liver microsomes with NADPH, 1 μM, 60 min) and 13.2% in series [8] (human liver microsomes with NADPH, 60 min). Moreover, the “Remaining (NCF = 60 min)” value is 103.7% in series [7] (rat liver microsomes, no co-factor (no NADPH), 1 μM, 60 min) and 97.1% in series [8] (human liver microsomes, no co-factor (no NADPH), 60 min). The “Clint(liver)” value in series [8] (human liver microsomes with NADPH, scaled from Clint(mic)) amounted to 59.0 mL/min/kg.
A word on the bioavailability: it is dose-corrected exposure relative to a reference, in per cent. For `Nc1cccc2c1C(=O)N(C1CCC(=O)NC1=O)C2=O` (stereo not shown) [pomalidomide], in [9] (3-MP both doses and pomalidomide I.P.), the “LPS-mediated elevations in brain IL-13” value is listed as “maintained”. Moreover, the “decline in IL-6 brain levels” value in series [9] (3-MP low dose 13.25 mg/kg I.P., pomalidomide 25 mg/kg I.P.) is on record as “failed to achieve statistical significance”. Further, the “IL-10 elevation induced by LPS in plasma or brain” value in series [9] (high- or low-dose 3-MP or pomalidomide I.P.) is given as “not lessened”. In series [10], the “LPS-induced cytokine changes in plasma and cerebral cortex” value was “significantly mitigated”. For the same compound, the bioavailability in series [11] is recorded as 13%; in series [12] it was 15%. For the same compound, in series [13], the brain/plasma concentration ratio is 0.71.

The values above are taken from publication PMC12397098, “3-Monothiopomalidomide, a new immunomodulatory imide drug (IMiD), blunts inflammation and mitigates ischemic stroke in the rat” (GeroScience, 2025).
